{
  "source": "patent US20150023904A1",
  "about": "“NEW APPLICATION OF PVP-I” (priority 2013, published 2015)",
  "system": "patients suffering premature ejaculation",
  "test": "IELT before and after treatment in patients suffering premature ejaculation (Groups a, b, c)",
  "format": "in vivo, human",
  "excerpt": "31 patients (27±5 years old) suffering premature ejaculation for 0.5 to 2 years who have abandoned other therapies for at least 1 month before participating in this experiment. With normal sexual desire, and without drug abuse experience, suspected drug use, or contact with radioactive materials, all these patients are composed of 10 with circumcision, 1 with renal insufficiency, 2 with unsatisfactory sexual life after marriage, and 1 with weak erection.\nTaking intravaginal ejaculatin latency time (IELT) as the experimental parameter, if the time after insertion into the vagina is less than 1 minute, deem it as 1 minute. Take IELT for 3 times before and after the treatment, then calculate the mean value.\nThe experiment was performed by observation of three groups: a, b and c, wherein,\nIELT shall be calculated after 1 month of drug taking respectively.\nAll the data were analyzed statistically with statistical software SPSS 18.0, and for single variables, t was inspected by taking the inspection standard α=0.05, with the inspection results as below: codes a, b and c represent different groups, the data following denote treatment time, 1 signifies IELT before treatment, 2 represents IELT after treatment and N as the number of patients.",
  "data": [
    {"smiles": "CN[C@H]1CC[C@@H](c2ccc(Cl)c(Cl)c2)c2ccccc21", "note": "[sertraline]", "values": [
      {"measurement": "number of patients with prolonged IELT after treatment", "setting": "Group a N=4, Group b N=13, Group c N=14, from scatter plots FIG. 2-4", "value": 4},
      {"measurement": "IELT after treatment, mean value", "setting": "after treatment, IELT taken 3 times and averaged, calculated after 1 month of drug taking, IELT less than 1 minute deemed 1 minute", "value": 3.75, "unit": "min"},
      {"measurement": "IELT before treatment, mean value", "setting": "before treatment (baseline of the same group), IELT taken 3 times and averaged", "value": 1.25, "unit": "min"},
      {"measurement": "patients with side effects or adverse reaction", "setting": "lethargy, dysphoria, bruxism and nausea, disappeared 2 to 3 days after drug withdrawal", "value": 5}
    ]}
  ]
}
